Laboratory results as given in publication PMC5036131, “Fragment-based discovery of a new family of non-peptidic small-molecule cyclophilin inhibitors with potent antiviral activities” (Nature Communications, 2016).
Like-named read-outs stand apart in the source and are kept apart here.

Columns and labels:
[1] = Kinetic solubility; assay type: physicochemical; conditions: target concentration 100 μM, 24 h; for Solubility HCl (pH 1.0): 0.1 N HCl pH 1.0
Description: The solutions were incubated at room temperature with shaking for 24 h and were then centrifuged, and the recovered supernatants assayed by HPLC with diode array ultraviolet/visible detection. Solubility values were calculated by comparing the amount (by chromatographic peak area) of compound detected in the defined test solution with an unextracted standard. Relative chemical stabilities of compounds after 24 h incubation in PBS at 37 °C were also determined. The solubility and chemical stability of a quality-control compound (amprenavir) were determined in parallel.

[2] = biological target: T1, CYP1A2 (Homo sapiens, UniProt P05177); assay: Cytochrome P450 enzyme inhibition assay, CYP1A2; assay type: in vitro ADME; parameters: incubated with human hepatic microsomal fractions and NADPH; from tissue; host or cells: human hepatic microsomal fractions; conditions: human hepatic microsomal fractions, up to 25 μM
T1 sequence (P05177 1-516): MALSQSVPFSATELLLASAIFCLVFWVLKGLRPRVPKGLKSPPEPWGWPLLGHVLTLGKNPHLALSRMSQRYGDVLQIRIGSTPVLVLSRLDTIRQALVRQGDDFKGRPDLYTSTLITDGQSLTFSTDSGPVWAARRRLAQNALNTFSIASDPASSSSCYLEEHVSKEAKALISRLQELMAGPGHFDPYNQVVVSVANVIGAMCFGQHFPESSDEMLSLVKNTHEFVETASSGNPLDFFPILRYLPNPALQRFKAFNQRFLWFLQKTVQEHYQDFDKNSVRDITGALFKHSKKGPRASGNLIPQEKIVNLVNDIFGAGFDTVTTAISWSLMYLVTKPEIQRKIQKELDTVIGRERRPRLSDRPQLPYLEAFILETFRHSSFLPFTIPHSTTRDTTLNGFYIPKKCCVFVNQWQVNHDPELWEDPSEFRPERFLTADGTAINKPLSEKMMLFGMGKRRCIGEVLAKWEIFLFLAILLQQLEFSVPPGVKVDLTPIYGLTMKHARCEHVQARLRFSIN
Description: (§1) Up to 25 μM of compounds 29 and 30 was incubated with human hepatic microsomal fractions and NADPH in the presence of individual probe substrates. All assays were designed so that conditions were linear with respect to time and protein concentration. Substrates were present at concentrations equal to or lower than their respective Km values. Enzyme selective products were determined by fluorometry (ethoxyresorufin O-deethylase) or by specific LC-MS/MS assays. Relative enzyme activities were determined by comparison with those assayed with DMSO vehicle instead of inhibitor. IC50 values were calculated by nonlinear curve fitting using a sigmoidal model. Positive control inhibitors for each enzyme were tested in parallel.

[3] = biological target: T1, CYP1A2; assay: Metabolism by recombinant human cytochrome P450, CYP1A2; assay type: in vitro ADME; conditions: recombinant enzyme
Description: (§2) […] of compound was incubated with individual bacterially expressed recombinant human cytochromes P450 co-expressed with human NADPH cytochrome P450 reductase. […] Enzyme-selective positive control substrates were tested in parallel.

[4] = test system: HIV-IIIb; assay: Anti-HIV activity in MT4 cells; assay type: cell-based, human immunodeficiency virus; conditions: 5 days
[5] = biological target: T2, CypB (Homo sapiens, UniProt P23284); assay: biochemical; assay type: biochemical; conditions: PPIase enzyme assay, 20 °C, mean±s.d.; read-out: CypB IC50
T2 construct: hexahistidine tag (His-Tag) (C); made in house; host or cells: E. coli C41(DE3)
Description: CypA and CypB proteins carrying a hexahistidine tag (His-Tag) at their carboxy terminus were expressed in E. coli and purified. Briefly, cultures of C41(DE3) cells were grown at 37 °C for 1 h until the culture reached an OD of 0.6 at 600 nm and then induced with 1 mM isopropyl-β-D-thiogalactopyranoside for 4 h at 37 °C (CypA) or overnight at 22 °C (CypB). Cell pellets were resuspended in a lysis buffer 20 mM NaH2PO4 pH 7.8, 300 mM NaCl, 7 mM β-mercaptoethanol, 1 mg ml^−1 lysozyme, 0.1 U μl^−1 desoxyribonuclease and complete protease inhibitor tablets (Roche Diagnostics Corporation, Indianapolis, Indiana). […] The bound protein was eluted in 1 ml fractions with a buffer composed of 20 mM NaH2PO4 pH 7.8, 300 mM NaCl, 250 mM imidazole, 7 mM β-mercaptoethanol and 10% glycerol, monitored by the Bradford colorimetric assay. The purity of each cyclophilin was determined by Coomassie-stained SDS–PAGE analysis.

[6] = biological target: CYP2D6 (Homo sapiens, UniProt P10635); assay: Metabolism by recombinant human cytochrome P450, CYP2D6; assay type: in vitro ADME; conditions: recombinant enzyme
Description: as §2

[7] = test system: Huh7 cells; assay: Cellular toxicity in Huh7 replicon cells; conditions: read-out: HCV genotype 1b replicon CC50; Huh7 cells
[8] = Stability with hepatic microsomal fractions; assay type: in vitro ADME; conditions: human microsomes 0.5 mg protein/ml, NADPH, 3 μM
Description: The compounds (3 μM) were incubated in duplicate for up to 1 h in the presence of human hepatic microsomal fractions (0.5 mg protein ml^−1 final) at 37 °C. The addition of cofactor solution (NADPH generating system) initiated the reaction and aliquots were removed at 0, 5, 15, 30, 45 and 60 min after the start. The concentrations of the compounds in each sample were determined using specific LC-MS/MS assays. The half-life for the disappearance of each was determined by fitting the concentration-time data with a monophasic exponential model. A control compound (verapamil) was run in parallel to test the enzymatic integrity of the microsomal fractions.

[9] = biological target: T3, CYP3A4 (Homo sapiens, UniProt P08684); assay: Cytochrome P450 enzyme inhibition assay, CYP3A4; assay type: in vitro ADME; conditions: human hepatic microsomal fractions, up to 25 μM
T3 construct: incubated with human hepatic microsomal fractions and NADPH; from tissue; host or cells: human hepatic microsomal fractions
Description: as §1

[10] = biological target: CYP2C9 (Homo sapiens, UniProt P11712); assay: Metabolism by recombinant human cytochrome P450, CYP2C9; assay type: in vitro ADME; conditions: recombinant enzyme
Description: as §2

[11] = test system: HCV genotype 1b replicon; assay: microbe, parasite or virus in culture; assay type: cell-based, hepatitis C virus
[12] = biological target: CYP2C19 (Homo sapiens, UniProt P33261); assay: Metabolism by recombinant human cytochrome P450, CYP2C19; assay type: in vitro ADME; conditions: recombinant enzyme
Description: as §2

[13] = test system: HCoV-229E; assay: Anti-human coronavirus 229E activity in MRC5 cells; assay type: cell-based; conditions: 72 h, viral cytopathic effect

T3 sequence (P08684 2-503): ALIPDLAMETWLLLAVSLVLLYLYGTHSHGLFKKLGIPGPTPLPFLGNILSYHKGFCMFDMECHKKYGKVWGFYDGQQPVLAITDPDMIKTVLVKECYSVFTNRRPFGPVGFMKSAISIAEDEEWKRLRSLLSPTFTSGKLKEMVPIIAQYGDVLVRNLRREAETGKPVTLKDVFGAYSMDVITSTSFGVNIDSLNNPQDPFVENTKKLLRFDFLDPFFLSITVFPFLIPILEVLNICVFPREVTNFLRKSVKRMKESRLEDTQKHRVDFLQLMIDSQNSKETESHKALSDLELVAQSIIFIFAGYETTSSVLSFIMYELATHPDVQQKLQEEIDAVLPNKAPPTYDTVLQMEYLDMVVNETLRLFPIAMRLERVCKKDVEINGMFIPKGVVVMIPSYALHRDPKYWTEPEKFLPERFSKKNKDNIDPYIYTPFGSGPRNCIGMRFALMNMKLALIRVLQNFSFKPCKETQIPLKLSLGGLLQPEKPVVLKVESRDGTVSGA
Sequence of CYP2C19 (P33261 whole entry): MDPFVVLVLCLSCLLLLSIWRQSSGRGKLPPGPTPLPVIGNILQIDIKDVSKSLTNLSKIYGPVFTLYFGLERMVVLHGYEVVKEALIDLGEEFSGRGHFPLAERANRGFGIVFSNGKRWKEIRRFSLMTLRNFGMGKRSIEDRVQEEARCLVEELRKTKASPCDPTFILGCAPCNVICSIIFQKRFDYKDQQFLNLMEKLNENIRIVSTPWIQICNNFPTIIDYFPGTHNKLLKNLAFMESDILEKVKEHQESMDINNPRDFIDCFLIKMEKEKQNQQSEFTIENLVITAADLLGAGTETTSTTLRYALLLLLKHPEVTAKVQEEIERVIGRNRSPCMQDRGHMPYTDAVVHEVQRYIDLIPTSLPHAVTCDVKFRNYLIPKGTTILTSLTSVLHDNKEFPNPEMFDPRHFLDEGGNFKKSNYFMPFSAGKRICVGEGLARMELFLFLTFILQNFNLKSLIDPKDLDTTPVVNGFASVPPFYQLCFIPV
T2 sequence (P23284 34-216): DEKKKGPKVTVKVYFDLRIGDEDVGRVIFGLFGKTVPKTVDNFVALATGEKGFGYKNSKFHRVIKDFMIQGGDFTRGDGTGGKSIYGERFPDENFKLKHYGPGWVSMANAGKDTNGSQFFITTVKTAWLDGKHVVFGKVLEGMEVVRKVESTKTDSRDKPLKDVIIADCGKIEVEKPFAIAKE
Sequence of CYP2D6 (P10635 whole entry): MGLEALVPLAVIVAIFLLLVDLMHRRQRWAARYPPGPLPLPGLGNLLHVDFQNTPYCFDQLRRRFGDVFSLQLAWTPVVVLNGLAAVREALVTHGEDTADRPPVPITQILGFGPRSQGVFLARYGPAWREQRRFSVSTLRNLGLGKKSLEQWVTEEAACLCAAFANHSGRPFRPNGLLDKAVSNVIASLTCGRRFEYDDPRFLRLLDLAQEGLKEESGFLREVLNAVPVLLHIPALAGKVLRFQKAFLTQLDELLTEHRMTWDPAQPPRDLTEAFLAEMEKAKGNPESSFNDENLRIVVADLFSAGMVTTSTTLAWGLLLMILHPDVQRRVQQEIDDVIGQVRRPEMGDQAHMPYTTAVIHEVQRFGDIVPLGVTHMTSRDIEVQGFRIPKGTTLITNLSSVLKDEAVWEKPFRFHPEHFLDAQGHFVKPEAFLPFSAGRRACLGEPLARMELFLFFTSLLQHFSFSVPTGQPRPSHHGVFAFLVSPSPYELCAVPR
Sequence of CYP2C9 (P11712 whole entry): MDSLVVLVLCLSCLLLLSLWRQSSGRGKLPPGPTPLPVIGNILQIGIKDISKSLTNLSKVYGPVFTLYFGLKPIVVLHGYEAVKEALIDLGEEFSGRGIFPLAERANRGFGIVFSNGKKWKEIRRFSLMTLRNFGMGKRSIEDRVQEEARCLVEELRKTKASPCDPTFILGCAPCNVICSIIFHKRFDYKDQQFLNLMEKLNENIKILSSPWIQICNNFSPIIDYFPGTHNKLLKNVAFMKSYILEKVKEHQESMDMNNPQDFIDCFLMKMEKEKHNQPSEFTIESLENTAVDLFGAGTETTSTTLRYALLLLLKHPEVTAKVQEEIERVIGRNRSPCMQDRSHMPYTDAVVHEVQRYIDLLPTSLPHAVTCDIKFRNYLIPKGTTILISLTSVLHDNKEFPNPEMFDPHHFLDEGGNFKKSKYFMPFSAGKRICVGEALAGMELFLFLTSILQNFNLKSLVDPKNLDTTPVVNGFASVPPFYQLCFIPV

SMILES: CSCCC(NC(=O)NCc1ccc(N)cc1)C(=O)N1CCCC1c1ccccc1SC.O=C(O)C(F)(F)F (stereo not drawn) [Compound 30]
- Solubility HCl (pH 1.0) [1]: > 100
- Solubility HCl (pH 1.0) ([1]; listed as compound 30): very soluble
- Solubility PBS (pH 7.4) [1]: > 100
- Solubility PBS (pH 7.4) ([1]; listed as compound 30): very soluble
- IC50 [2]: > 25 µM
- Inhibition of cytochrome P450 activity, IC50 CYP1A2 [2]: Neither compound 29 nor compound 30 significantly inhibited
- Rate of metabolism by human cytochrome P450 CYP1A2 [3]: < 0.12 pmol/pmol P450/min
- Rate of metabolism by human cytochrome P450 CYP1A2 ([3]; listed as compound 30): Neither compound 29 nor compound 30 was metabolized
- EC50 [4]: 15 ± 1.2 µM
- IC50 [5]: 1.9 ± 1.5 µM
- Rate of metabolism by human cytochrome P450 CYD2D6 [6]: 1.24 pmol/pmol P450/min
- CC50 [7]: > 100 µM
- Hepatic microsomal stability, T1/2 [8]: 35.5 min
- IC50 [9]: 0.6 µM
- Inhibition of cytochrome P450 activity, IC50 CYP3A4 [9]: potent inhibitors
- Rate of metabolism by human cytochrome P450 CYP2C9 [10]: 0.49 pmol/pmol P450/min
- EC50 ([11]; Huh7 cells, 3 days, HCV RNA, read-out: HCV genotype 1b replicon EC50): 1.4 ± 1.2 µM
- EC50 ([11]; wild-type genotype 1b replicon, comparison with mutated replicons (Table 3), read-out: EC50 HCV (WT) subgenomic replicon): 2.1 ± 0.09 µM
- Rate of metabolism by human cytochrome P450 CYP2C19 [12]: 6.21 pmol/pmol P450/min
- Rate of metabolism by human cytochrome P450 CYP2C19 ([12]; listed as compound 30): metabolized at the highest rate
- EC50 [13]: 7.2 ± 1.8 µM
